Data as given in PubChem BioAssay AID2165 (The Scripps Research Institute Molecular Screening Center, 2009).
Where “and” joins values, the source holds several entries; their conditions need not be identical. Equal values may be shown once. Calls of active or inactive are those of the source. Cut-off read from the data, not from the text of the source: active = IC50 below about 9 µM; inactive = the rest.

Biological target: Tyrosine-protein kinase JAK2 (Homo sapiens) (UniProt O60674)
Assay: JAK2V617F kinase, IRF1 reporter and Ba/F3 cytotoxicity panel, late-stage follow-up, HEL and Ba/F3 cells (AID 2165)

Sequence of Tyrosine-protein kinase JAK2 (Homo sapiens) (O60674 whole entry, looked up, change not shown): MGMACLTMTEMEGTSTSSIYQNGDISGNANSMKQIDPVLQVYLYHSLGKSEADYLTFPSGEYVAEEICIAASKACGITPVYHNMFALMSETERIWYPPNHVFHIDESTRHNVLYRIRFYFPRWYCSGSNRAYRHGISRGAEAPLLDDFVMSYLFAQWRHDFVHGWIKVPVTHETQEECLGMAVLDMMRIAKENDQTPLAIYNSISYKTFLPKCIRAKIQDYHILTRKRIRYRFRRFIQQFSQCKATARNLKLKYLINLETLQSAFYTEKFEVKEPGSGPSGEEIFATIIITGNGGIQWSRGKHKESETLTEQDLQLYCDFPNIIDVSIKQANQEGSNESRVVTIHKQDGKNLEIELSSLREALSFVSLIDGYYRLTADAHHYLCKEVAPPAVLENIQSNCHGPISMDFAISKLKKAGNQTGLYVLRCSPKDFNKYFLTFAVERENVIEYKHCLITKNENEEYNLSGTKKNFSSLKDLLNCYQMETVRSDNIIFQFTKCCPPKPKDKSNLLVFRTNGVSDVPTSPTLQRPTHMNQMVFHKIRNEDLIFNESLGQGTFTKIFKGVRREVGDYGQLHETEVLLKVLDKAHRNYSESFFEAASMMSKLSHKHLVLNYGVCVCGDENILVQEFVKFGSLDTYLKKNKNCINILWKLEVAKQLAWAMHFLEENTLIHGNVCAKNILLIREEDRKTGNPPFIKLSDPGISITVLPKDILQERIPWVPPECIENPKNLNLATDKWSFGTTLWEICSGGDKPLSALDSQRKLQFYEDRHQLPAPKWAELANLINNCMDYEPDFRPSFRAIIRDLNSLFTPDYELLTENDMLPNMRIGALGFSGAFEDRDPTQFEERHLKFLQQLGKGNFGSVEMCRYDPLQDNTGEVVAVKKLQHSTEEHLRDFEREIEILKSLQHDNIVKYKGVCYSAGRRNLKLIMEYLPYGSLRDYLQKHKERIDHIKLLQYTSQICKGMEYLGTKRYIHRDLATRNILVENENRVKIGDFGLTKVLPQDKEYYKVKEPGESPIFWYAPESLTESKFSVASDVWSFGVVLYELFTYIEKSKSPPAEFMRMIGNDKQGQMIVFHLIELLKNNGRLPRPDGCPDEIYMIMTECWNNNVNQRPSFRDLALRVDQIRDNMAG

Compound | IC50 (Ba/F3, irf1 reporter) | IC50 (HEL, irf1 reporter) | IC50 (JAK2V617F)
COc1cc2ncc(-c3ccccc3)nc2cc1OC | > 40 µM (inactive) | 0.69 µM | > 40 µM (inactive)
Cc1[nH]c(=O)c(C(=O)C=Cc2ccc(C(C)C)cc2)c2c1CCCC2 | 0.84 µM | 6.33 µM | 2.29 µM
Cc1[nH]c(=O)c(C(=O)C=Cc2ccc(Cl)cc2)c2c1CCCC2 | 1.07 µM | 0.96 µM | 2.64 µM
Cc1[nH]c(=O)c(C(=O)C=Cc2ccc(I)cc2)c2c1CCCC2 | 0.82 µM | 11.2 µM | > 40 µM (inactive)
COc1cc2ncnc(Sc3ccc(C)cc3)c2cc1OC | – | 4.55 µM | > 40 µM (inactive)
CCOc1ccc(C(=O)C(CN2CCOCC2)c2ccccc2)cc1 (stereo unspecified) | 16.6 µM | 11 µM | –
Cc1[nH]c(=O)c(C(=O)/C=C/c2ccccc2F)c2c1CCCC2 | 6.42 µM and 1.07 µM | 3.87 µM and 0.79 µM | 0.45 µM
COc1cc2ncnc(Nc3cccc(Br)c3)c2cc1OC | 1.31 µM | 3.16 µM | 4.94 µM
COCCOc1cc2ncnc(Nc3cccc(C#Cc4ccc(O)cc4)c3)c2cc1OCCOC | – | 0.0948 µM | 2.74 µM
COC(=O)COc1cccc2c(=O)n(CC(=O)NCc3ccc(F)cc3)ccc12 | 16.3 µM | 7.33 µM | –
Cc1ccccc1CS(=O)(=O)c1nnc([C@H](CC(C)C)NC(=O)OC(C)(C)C)o1 | 1.96 µM | 12.1 µM | –
CCCC(=O)N(C1CC(C)C(C#N)(C#N)C1(C#N)C#N)N(C)C (stereo unspecified) | 0.452 µM | 5.75 µM | –
Cc1cccc(N(Cc2ccccc2)C(=O)CCl)c1 | 1.13 µM | 4.76 µM | –
O=S(=O)(c1cccs1)N1CCN(c2ccc(O)cc2)CC1 | 7.02 µM | 20.9 µM | –
CCCn1c(CC)nc([N+](=O)[O-])c1S(=O)(=O)c1ccccc1 | 4.37 µM | 4.36 µM | –
Cc1nc([N+](=O)[O-])c(Br)n1CC(=O)c1ccc2ccccc2c1 | 5.1 µM | 21.1 µM | –
N#CC(C#N)=Cc1cc(O)c(O)c(I)c1 | 5.01 µM | 19.6 µM | 8.82 µM
COc1ccc2nc(C)cc(Sc3nc4ccccc4s3)c2c1 | 2.98 µM | 11 µM | –
CCN(CC)S(=O)(=O)c1cccc(-n2c(O)c(C=Nc3ccccc3C(=O)O)c3ccccc3c2=O)c1 | > 40 µM (inactive) | > 40 µM (inactive) | –
COc1ccc(C2=Nn3c(nnc3C3CCCCC3)SC2)cc1OC | 8.93 µM | 13.3 µM | –
Clc1cccc(Nc2ncnc3ccccc23)c1 | – | > 40 µM (inactive) | > 40 µM (inactive)
O=C(CCl)N=c1sccn1Cc1ccccc1Cl | 9.38 µM | 1.62 µM | –

Compound | IC50 (Ba/F3, irf1 reporter) | IC50 (HEL, irf1 reporter) | IC50 (JAK2V617F)
Cc1cccc(NC(=O)COc2cccc(C)c2)c1 | – | – | > 40 µM (inactive)
COc1cccc(F)c1C(C[N+](=O)[O-])c1c(N)n(C)c(=O)n(C)c1=O (stereo unspecified) | 5.77 µM | 9.37 µM | –
COc1ccccc1-c1nnc(Sc2nc([N+](=O)[O-])nn2C)o1 | 35.5 µM | 13.6 µM | –
C/C(=C\c1ccccc1F)C(=O)c1c(C)cc(C)[nH]c1=O | > 40 µM (inactive) | 3.24 µM | > 40 µM (inactive)
c1ccc(CCNc2nc(-c3ccccn3)nc3ccccc23)cc1 | 5.49 µM | 2.88 µM | –
O=C1C=CCC(/C=C/c2ccccc2)O1 (stereo unspecified) | 7.41 µM | 2.05 µM | –
COc1cc2ncnc(NC(C)C)c2cc1OC | – | > 40 µM (inactive) | > 40 µM (inactive)
O=C(CSc1nnnn1-c1ccc(F)cc1)c1ccc(O)c(O)c1 | 12.4 µM | 16.5 µM | –
Oc1ccccc1OCCOc1ccccc1OCCOc1ccccc1O | 6.74 µM | 15.9 µM | –
O=C(/C(=N/N=C/c1ccc(O)c(O)c1)c1ccccc1)c1ccccc1 | 6.61 µM | 9.46 µM | –
COCCOc1cc2ncnc(Nc3cccc(C#Cc4ccc(-c5ccccc5)cc4)c3)c2cc1OCCOC | – | > 40 µM (inactive) | 3.81 µM
CN(c1ccccc1)S(=O)(=O)c1cccc(C(=O)NCCc2ccc(O)c(O)c2)c1 | 3.02 µM | 2.97 µM | –
Cc1ccc2nc(C)cc(Nc3ccc([N+](=O)[O-])cc3)c2c1 | 3.43 µM | 5.98 µM | –
O=C(O)c1[nH]c(=O)[nH]c(=O)c1F | > 40 µM (inactive) | > 40 µM (inactive) | –
Cc1ccc(O)c(NC(=O)COc2ccc(C3CCCCC3)cc2)c1 | – | – | > 40 µM (inactive)
CC(C)c1cc(C=C(C#N)C(=O)NCCCc2ccccc2)cc(C(C)C)c1O | 0.54 µM | 1.15 µM | 3.97 µM
Cc1c(Cc2ccccc2)c(=O)oc2c(O)c(O)ccc12 | 6.58 µM | 31.9 µM | –
COc1cc2ncnc(Nc3ccc(O)c(Br)c3)c2cc1OC | 2.18 µM | 2.98 µM | 30.3 µM
COc1ccccc1N(C(=O)CCl)c1cn(C(C)=O)c2ccccc12 | 2.17 µM | 9.3 µM | –
CCS(=O)(=O)c1ccc(O)c(NC(=O)COc2cccc(C)c2)c1 | – | – | > 40 µM (inactive)
Cc1ccc(C)c(Sc2ccc(NC(=O)CCl)cc2)c1 | 2.19 µM | 18 µM | –
COc1ccc(N2CCc3c(C)nc4c(OC)cc(OC)cc4c32)c(OC)c1 | 7.67 µM | – | –

Compound | IC50 (Ba/F3, irf1 reporter) | IC50 (HEL, irf1 reporter) | IC50 (JAK2V617F)
O=C(OCn1ncc(Cl)c(Cl)c1=O)c1ccc(F)cc1 | 1.94 µM | 8.04 µM | –
COC(=O)/C=C/c1ccc(OC(=O)OC)c(OC(=O)OC)c1 | 12.6 µM | 27.7 µM | –
COc1ccc([N+](=O)[O-])c(S(=O)(=O)c2ccc(Cl)cc2)n1 | 0.395 µM | 10.4 µM | –
O=C1C=C(Nc2ccc(O)cc2)C(=O)c2ccccc21 | 7.94 µM | 34.7 µM | –
Cc1cccc(OCC(=O)Nc2ccc(C)c(C)c2)c1 | – | – | > 40 µM (inactive)
N#CC(=Cc1ccc(O)c(O)c1)C(=S)NCc1ccccc1 | 0.62 µM | > 40 µM (inactive) | 1.92 µM
CCOc1cc2ncnc(Nc3cccc(Br)c3)c2cc1OCC | 2.36 µM | 2.59 µM | 7.12 µM
CC(C)(C)/C(O)=C/c1nc2cc(Cl)ccc2oc1=O | 4.13 µM | 12.6 µM | –
O=C(NCCc1cccnc1)C1CCC(=O)N(CCc2cccc(F)c2)C1 (stereo unspecified) | – | > 40 µM (inactive) | > 40 µM (inactive)
O=C(NC1C=CS(=O)(=O)C1)c1sc2ccccc2c1Cl (stereo unspecified) | 8.98 µM | > 40 µM (inactive) | –
O=C(CCl)N=c1sccn1Cc1cccc2ccccc12 | 7.24 µM | 0.202 µM | –
Nc1nc(CCl)nc(N(c2ccccc2)c2ccccc2)n1 | 14.3 µM | 2.64 µM | –
Cc1cccc(OCC(=O)Nc2cccc(C)c2C)c1 | – | – | > 40 µM (inactive)
CCN1C/C(=C/c2ccc(OC)c(O)c2)C(=O)/C(=C/c2ccc(OC)c(O)c2)C1 | 2.36 µM | 2.75 µM | –
COc1cccc(Nc2ncnc3cc(OC)c(OC)cc23)c1 | – | 3.54 µM | > 40 µM (inactive)
COc1ccc(-c2cnc3c(c2)CCC3(C#N)C#N)cc1 | 14.4 µM | 10.4 µM | –
Cc1cccc(OCC(=O)Nc2cccc(O)c2)c1 | – | > 40 µM (inactive) | > 40 µM (inactive)
Cc1ccc(O)c(NC(=O)COc2cccc3ccccc23)c1 | – | – | 2.34 µM
Cc1cccc(OCC(=O)Nc2cc(C)ccc2O)c1 | 3.94 µM | > 40 µM (inactive) | –
Cc1cccc(OCC(=O)Nc2ccc(O)cc2)c1 | – | – | > 40 µM (inactive)
CN(C)C(=S)SSC(=S)N(C)C | 2.38 µM | 13.5 µM | –
CCCOc1ccc(C(=O)C(CN2CCOCC2)c2ccccc2)cc1 (stereo unspecified) | > 40 µM (inactive) | 11.4 µM | –

Compound | IC50 (Ba/F3, irf1 reporter) | IC50 (HEL, irf1 reporter) | IC50 (JAK2V617F)
COc1ccc(OCC(=O)Nc2cc(C)ccc2O)cc1 | – | – | 3.4 µM
CS(=O)(=O)c1nc(-c2ccco2)cc(C(F)(F)F)n1 | 0.869 µM | 7.42 µM | –
CC(C)(C)c1cc(NC(=O)CCl)n(-c2ccccc2)n1 | 8.46 µM | 9.96 µM | –
Cc1ccc(C=CC(=O)c2c3c(c(C)[nH]c2=O)CCCC3)cc1 | 6.04 µM | 23.9 µM | 3.38 µM
CCOc1ccc(Nc2nc(N)nc(CCl)n2)cc1 | 11.2 µM | 0.452 µM | –
O=C(OCn1ncc(Cl)c(Cl)c1=O)c1ccccc1Cl | 4.03 µM | 4.45 µM | –
Cc1[nH]c(=O)c(C(=O)C=Cc2cccc(Br)c2)c2c1CCCC2 | 0.59 µM | 1.13 µM | 0.55 µM
Cc1ccccc1CS(=O)(=O)c1nnc([C@H](Cc2ccccc2)NC(=O)OC(C)(C)C)o1 | 1.56 µM | 13.5 µM | –
O=C(CCl)N(C/C=C/c1ccccc1)c1ccc2c(c1)OCCO2 | 0.499 µM | 12 µM | –
COc1cc(C=C(C#N)C(N)=O)cc(CSc2ccccc2)c1O | > 40 µM (inactive) | > 40 µM (inactive) | > 40 µM (inactive)
COc1ccc(Nc2nc(N)nc(CCl)n2)cc1 | > 40 µM (inactive) | 3.96 µM | –
Cc1ccc(O)c(NC(=O)COc2ccc(I)cc2)c1 | – | – | 0.0268 µM
O=C(Nc1cccc(NC(=O)c2cccs2)c1)c1ccc([N+](=O)[O-])o1 | 4.5 µM | 3.31 µM | –
COc1cc2ncnc(Nc3ccc(F)c(F)c3)c2cc1OC | – | > 40 µM (inactive) | > 40 µM (inactive)
O=C(CCl)NC(=O)NC12CC3CC(CC(C3)C1)C2 | 3.56 µM | 7.9 µM | –
N#Cc1ccccc1NC(=O)COc1ccc2c(c1)OCO2 | – | > 40 µM (inactive) | > 40 µM (inactive)
Cc1nc([N+](=O)[O-])c(Br)n1Cc1ccc(Cl)c(Cl)c1 | 2.62 µM | 4.58 µM | –
Cc1cc2ncc(-c3ccc(O)c(O)c3)nc2cc1C | 0.104 µM | 3.19 µM | 0.84 µM
C#CCSc1nsc(SCC#C)c1C#N | 6.71 µM | > 40 µM (inactive) | –
Cc1cccc(CS(=O)(=O)c2nnc([C@H](Cc3ccccc3)NC(=O)OC(C)(C)C)o2)c1 | 1.39 µM | 11.6 µM | –
CCC(C)Nc1ncnc2cc(OC)c(OC)cc12 (stereo unspecified) | – | > 40 µM (inactive) | 1.79 µM
Cc1ccc(O)c(NC(=O)COc2cccc(C)c2C)c1 | – | – | > 40 µM (inactive)
